Test results taken from patent US9884048B2, “ERK inhibitors” (Merck Sharp & Dohme Corp., priority 2014, dated 2018).
pIC50: −log10 of the molar value.

molecular target: phosphorylated active hERK2 enzyme (Homo sapiens (Human), UniProt P28482); conditions: read-out: ERK2 IC50; IMAP-FP assay; 0.5 nM hERK2, 30 μM ATP; 10 point titration, 3 μM starting concentration
Sequence (P28482 whole entry): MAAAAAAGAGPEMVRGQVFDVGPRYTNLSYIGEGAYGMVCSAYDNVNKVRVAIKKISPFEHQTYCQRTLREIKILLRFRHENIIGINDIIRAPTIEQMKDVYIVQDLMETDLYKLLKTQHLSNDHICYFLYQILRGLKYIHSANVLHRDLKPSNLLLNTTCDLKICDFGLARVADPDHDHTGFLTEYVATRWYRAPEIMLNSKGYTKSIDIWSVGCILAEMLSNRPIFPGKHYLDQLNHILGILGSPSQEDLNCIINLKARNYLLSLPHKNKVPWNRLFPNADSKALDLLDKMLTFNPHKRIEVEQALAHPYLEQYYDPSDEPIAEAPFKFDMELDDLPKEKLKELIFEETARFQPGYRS

pIC50	SMILES
7.40	CCO[C@H]1CNC[C@@H]1NC(=O)Nc1cc2cnn(-c3ccnc(C)c3)c2cn1 [Example 272, 1-[(3S,4S)-4-ethoxypyrrolidin-3-yl]-3-[1-(2-methylpyridin-4-yl)-1H-pyrazolo[3,4-c]pyridin-5-yl]urea]
9.29	Cc1cc(-n2ncc3cc(NC(=O)N[C@H]4CN(C)C[C@@H]4c4ccccc4C(F)(F)F)ncc32)ccn1 [Example 191, 1-[1-(2-methylpyridin-4-yl)-1H-pyrazolo[3,4-c]pyridin-5-yl]-3-{(3R,4S)-1-methyl-4-[2-(trifluoromethyl)-phenyl]pyrrolidin-3-yl}urea]
6.93	CCNC(=O)OCc1nc(NC(=O)N[C@H](C)c2ccccc2)cc2cnn(-c3ccc(F)cc3)c12 [Example 327, [1-(4-Fluorophenyl)-5-({[(1R)-1-phenylethyl]carbamoyl}amino)-1H-pyrazolo[3,4-c]pyridin-7-yl]methyl ethylcarbamate]
8.55	Cc1cc(-n2ncc3cc(NC(=O)NC4CCCC(c5ccccc5)C4)ncc32)ccn1 (centres unmarked) [Example 171, 1-[1-(2-methylpyridin-4-yl)-1H-pyrazolo[3,4-c]pyridin-5-yl]-3-(3-phenyl-cyclohexyl)urea]
7.63	Cc1cc(-n2ncc3cc(NC(=O)N[C@H](C)c4ccccc4)nc(COCCO)c32)ccn1 [Example 253, 1-{7-[(2-hydroxyethoxy)methyl]-1-(2-methylpyridin-4-yl)-1H-pyrazolo[3,4-c]pyridin-5-yl}-3-[(1R)-1-phenylethyl]urea]
8.96	CCOC[C@@H](NC(=O)Nc1cc2cnn(-c3ccnc(C)c3)c2cn1)c1ccccc1 [Example 129, 1-[(1S)-2-ethoxy-1-phenylethyl]-3-[1-(2-methylpyridin-4-yl)-1H-pyrazolo[3,4-c]pyridin-5-yl)urea]
5.76	Cc1cc(-n2ncc3cc(NC(=O)NC4CCN(c5ccccc5)CC4)ncc32)ccn1 [Example 78, 1-[1-(2-methylpyridin-4-yl)-1H-pyrazolo[3,4-c]pyridin-5-yl]-3-(1-phenylpiperidin-4-yl)urea]
8.93	Cc1cc(-n2ncc3cc(NC(=O)N[C@H]4CN(C)C[C@@H]4CCCc4ccccc4)ncc32)ccn1 [Example 149, 1-[(3R,4S)-1-methyl-4-(3-phenylpropyl)pyrrolidin-3-yl]-3-[1-(2-methylpyridin-4-yl)-1H-pyrazolo[3,4-c]pyridin-5-yl]urea]
8.81	Cn1cc2cc(-n3ncc4cc(NC(=O)NC(c5ccccc5)c5cnco5)ncc43)ccc2n1 (centres unmarked) [Example 35, 1-[1-(2-methyl-2H-indazol-5-yl)-1H-pyrazolo[3,4-c]pyridin-5-yl]-3-[1,3 oxazol-5-yl(phenyl)methyl]urea]
7.21	CC(C)n1ncc2cc(NC(=O)N[C@H](C)c3ccccc3)nc(CO)c21 [Example 302, 1-[7-(hydroxymethyl)-1-(1-methylethyl)-1H-pyrazolo[3,4-c]pyridin-5-yl]-3-[(1R)-1-phenylethyl]urea]
6.07	COC(=O)[C@@H](NC(=O)Nc1cc2cnn(-c3ccnc(C)c3)c2cn1)c1ccccc1 [Example 137, methyl (2S)-({[1-(2-methylpyridin-4-yl)-1H-pyrazolo[3,4-c]pyridin-5-yl]carbamoyl}amino)(phenyl) ethanoate]
8.55	Cc1cc(-n2ncc3cc(NC(=O)NC4CCN(Cc5cccnc5Cl)C4)ncc32)ccn1 (centres unmarked) [Example 281, 1-{1-[(2-chloropyridin-3-yl)methyl]pyrrolidin-3-yl}-3-[1-(2-methylpyridin-4-yl)-1H-pyrazolo[3,4-c]pyridin-5-yl]urea]
6.73	C[C@@H](NC(=O)Nc1cc2cnn(-c3ccc(F)cc3)c2c(COCCN2CCOCC2)n1)c1ccccc1 [Example 244, 1-{1-(4-fluorophenyl)-7-[(2-morpholin-4-ylethoxy)methyl]-1H-pyrazolo[3,4-c]pyridin-5-y1}-3-[(1R)-1-phenylethyl]urea]
6.98	CCN1CC[C@@H](NC(=O)Nc2cc3cnn(-c4ccnc(C)c4)c3cn2)C1 [Example 28, 1-[(3R)-1-ethylpyrrolidin-3-yl]-3-[1-(2-methylpyridin-4-yl)-1H-pyrazolo[3,4-c]pyridin-5-yl]urea]
7.25	Cc1cc(-n2ncc3cc(NC(=O)NC(C)(C)c4ccccc4)ncc32)ccn1 [Example 122, 1-(1-methyl-1-phenylethyl)-3-[1-(2-methylpyridin-4-yl)-1H-pyrazolo[3,4-c]pyridin-5-yl]urea]
7.40	C[C@@H](NC(=O)Nc1cc2cnn(-c3ccc(F)cc3)c2c(CO)n1)c1ccccc1 [Example 240, 1-[1-(4-fluorophenyl)-7-(hydroxymethyl)-1H-pyrazolo[3,4-c]pyridin-5-yl]-3-[(1R)-1-phenylethyl]urea]
7.99	Cc1cc(-n2ncc3cc(NC(=O)N[C@H](C)c4ccccc4)nc(CO)c32)ccn1 [Example 300, 1-[7-(Hydroxymethyl)-1-(2-methylpyridin-4-yl)-1H-pyrazolo[3,4-c]pyridin-5-yl]-3-[(1R)-1-phenylethyl]urea]
7.60	Cc1cc(-n2ncc3cc(NC(=O)N[C@H](C)c4ccccc4)nc(COC4COC4)c32)ccn1 [Example 250, 1-{1-(2-methylpyridin-4-yl)-7-[(oxetan-3-yloxy)methyl]-1H-pyrazolo[3,4-c]pyridin-5-yl}-3-[(1R)-1-phenylethyl]urea]
8.08	Cc1cc(-n2ncc3cc(NC(=O)NCc4ccccc4)ncc32)ccn1 [Example 58, 1-benzyl-3-[1-(2-methylpyridin-4-yl)-1H-pyrazolo[3,4-c]pyridin-5-yl]urea]
6.71	Cc1cc(-n2ncc3cc(NC(=O)NCC(c4ccc(F)cc4)N4CCCCC4)ncc32)ccn1 (centres unmarked) [Example 54, 1-[2-(4-fluorophenyl)-2-piperidin-1-ylethyl]-3-[1-(2-methylpyridin-4-yl)-1H-pyrazolo[3,4-c]pyridin-5-yl)urea]
9.00	Cc1cc(-n2ncc3cc(NC(=O)N[C@@H]4CN(C)C[C@H]4c4ccc(C)s4)ncc32)ccn1 [Example 124, 1-[(3S,4R)-1-methyl-4-(5-methylthiophen-2-yl)pyrrolidin-3-yl]-3-[1-(2-methylpyridin-4-yl)-1H-pyrazolo[3,4-c]pyridin-5-yl)urea]
7.51	COC[C@@H](NC(=O)Nc1cc2cnn(Cc3ccncc3)c2cn1)c1ccccc1 [Example 260, 1-[(1S)-2-methoxy-1-phenylethyl]-3-[1-(pyridin-4-ylmethyl)-1H-pyrazolo[3,4-c]pyridin-5-yl]urea]
6.29	C[C@@H](NC(=O)Nc1cc2cnn(-c3ccc(F)cc3)c2c(CN)n1)c1ccccc1 [Example 319, 1-[7-(aminomethyl)-1-(4-fluorophenyl)-1H-pyrazolo[3,4-c]pyridin-5-yl]-3-[(1R)-1-phenylethyl]urea]
7.79	Cc1cc(-n2ncc3cc(NC(=O)NCCc4c(C)noc4C)ncc32)ccn1 [Example 117, 1-[2-(3,5-dimethylisoxazol-4-yl)ethyl]-3-[1-(2-methylpyridin-4-yl)-1H-pyrazolo[3,4-c]pyridin-5-yl)urea]
7.46	O=C(Nc1cc2cnn(-c3ccncc3)c2cn1)NC1CCCc2ccccc21 (centres unmarked) [Example 10, 1-(1-pyridin-4-yl-1H-pyrazolo[3,4-c]pyridin-5-yl)-3-(1,2,3,4-tetrahydronaphthalen-1-yl)urea]
8.58	CCC(O)(CC)[C@@H](NC(=O)Nc1cc2cnn(-c3ccnc(C)c3)c2cn1)c1ccccc1 [Example 293, 1-[(1S)-2-ethyl-2-hydroxy-1-phenylbutyl]-3-[1-(2-methylpyridin-4-yl)-1H-pyrazolo[3,4-c]pyridin-5-yl]urea]
